Assay: Inhibition of human CYP1B1 transfected in HEK293 cells assessed as cisplatin EC50 at 6 times IC50 by MTT assay (Rvb = 65 uM)

EC50 [µM] | Structure (SMILES)
10 | COc1ccccc1/C=C/C(=O)c1ccc[nH]1
10 | O=C(/C=C/c1ccccc1Cl)c1ccc[nH]1
